According to US10500198B2, “Bis-benzylidine piperidone proteasome inhibitor with anticancer activity” (The Johns Hopkins University, priority 2013, dated 2019):

How the values were obtained:
MM and HeLa cells = test: Annexin-V flow cytometry; assay type: cell-based; conditions: 12 hr after treating
Method: Activation of ICE family members such as caspase-3 and -7 results in cleavage of poly ADP ribose polymerase (PARP) to 85 kDa and 25 kDa fragments and drives apoptosis.
Induction of apoptosis was determined using Annexin V-PE Apoptosis Detection Kit I (BD Pharmingen, San Diego, Calif.) according to the manufacturer's protocol.

[1] = Tissue levels 48 hr after single i.p. dose; assay type: in vivo, mouse; conditions: 48 hr after single i.p. dose of 10 mg/kg
Method: Tissue was harvested at 48 hr after single-dose intraperitoneal administration in non-tumor bearing mice. Blood was collected by cardiac puncture under anesthesia into heparinized syringes and centrifuged to obtain plasma. Tissues were rapidly dissected and snap frozen in liquid nitrogen. Samples were stored frozen at −70° C. until analysis. […] Tissue homogenates were prepared at a concentration of 200 mg/mL in PBS and further diluted 1:10 in mouse plasma before extraction using acetonitrile containing temazepam (100 ng/mL). Separation was achieved on Waters X-Terra™ C18 (50 mm×2.1 mm i.d., 3 μm) at room temperature using isocratic elution with acetonitrile/water mobile phase (70:30, v/v) containing 0.1% formic acid at a flow rate of 0.2 mL/min. […] Samples were quantitated over the assay range of 10 to 1000 ng/mL or 0.6 to 60 μg/g. […] Cmax and Tmax were the observed values from the mean data. The AUClast was calculated using the log-linear trapezoidal rule to the end of sample collection (AUClast) and extrapolated to infinity (AUC0-∞) by dividing the last quantifiable concentration by the terminal disposition rate constant (λz), which was determined from the slope of the terminal phase of the concentration-time profile. The half-life (T1/2) was determined by dividing 0.693 by λz. Relative bioavailability was calculated as follows: […]

[2] = Complete blood counts, blood chemistry and histopathology of healthy Balb/C mice
[3] = Complete blood counts and blood chemistry of C57BL/6 mice carrying TC-1 tumor; conditions: C57BL/6 mice with TC-1 tumor; nine doses every third day: RA190 40 mg/kg p.o., Bortezomib 1.5 mg/kg i.p.; mean ± SD, n = 3;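 note: blood drawn from the heart after euthanasia, cell counts read on an automated hemocytometer, heparinized plasma analyzed on an automated clinical chemistry analyzer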
HeLa cells = test: Drug combination index assay; assay type: cell-based, human; conditions: 48 hr, read-out: IC50 (single agent, Compusyn)
Method: The combination indices and a normalized isobologram were calculated using Compusyn software (www.combosyn.com).

ES-2 = test: Cell viability after 48-hr treatment (Table 1); assay type: cell-based, human; conditions: XTT assay
Method: (§1) Cells seeded at the concentration of 1,000 cells/well for HeLa, 5,000 cells/well for ES2 and HCT116 and 10,000-20,000 cells/well for other cell lines in 100 μL medium in 96-well plate were treated with RA series compounds at specified concentrations. […]

NCl-H929 = test: Cell viability after 48-hr treatment (Table 1); assay type: cell-based, human; conditions: XTT assay
Method: as §1

[4] = healthy Balb/C mice, 3 doses 40 mg/kg p.o. every third day, mean ± SD, n = 3

With Cl.N[C@@H](Cc1ccccc1)C(=O)N1CC(=Cc2ccc(Cl)c(Cl)c2)C(=O)C(=Cc2ccc(Cl)c(Cl)c2)C1 [RA190, 3,5-bis(3,4-dichlorobenzylidene)-1-(S-2-amino-3-phenyl)-piperidin-4-one-HCl salt] as the compound, how does the “apoptosis (Annexin-V)” value (MM and HeLa cells) read?
The value was “trigger extensive apoptosis”.

What about the “RA190 detected in brain” value [1] of the same compound?
Its value is “not brain”.

What about the “RA190 detected in kidney” value [1] of the same compound?
The value was 0.61 µg/g.

And the “RA190 detected in liver” value [1]?
Its value is 0.57 µg/g.

And the “RA190 detected in lung” value [1]?
Its value is 0.66 µg/g.

What about the “RA190 detected in spleen” value [1] of the same compound?
Its value is 0.59 µg/g.

What about the “ALBNEW (Albumin)” value [2, 4] of the same compound?
Its value is 3.03 ± 0.05.

What about the “ALPNEW (Alkaline Phosphatase)” value [2, 4] of the same compound?
Its value is 84.33 ± 7.57.

What about the “ALTNEW (Alanine Aminotransferase)” value [2, 4] of the same compound?
The value was 39.66 ± 4.04.

And the “AMYL (Amylase)” value [2, 4]?
The value was 743 ± 29.4.

What about the “ASTNEW (Aspartate aminotransferase)” value [2, 4] of the same compound?
The value was 62.66 ± 11.01.

What about the “BA(Basophils)” value [2, 4] of the same compound?
Its value is 0.06 ± 0.07.

And the “BUNNEW (Blood Urea Nitrogen)” value [2, 4]?
The value was 20 ± 2.64.

What about the “CA (Calcium)” value [2, 4] of the same compound?
Its value is 9 ± 0.2.

What about the “CHOL (Cholesterol)” value [2, 4] of the same compound?
Its value is 114 ± 12.12.

And the “CK_NEW (Creatinine Kinase)” value [2, 4]?
The value was 55.66 ± 25.48.

What about the “CREAT (Creatinine)” value [2, 4] of the same compound?
Its value is 0.36 ± 0.05.

And the “EO (Eosinophils)” value [2, 4]?
Its value is 0.24 ± 0.23.

What about the “GGTNEW (Gamma-Glutamyl Transferase)” value [2, 4] of the same compound?
The value was 4.33 ± 0.57.

And the “GLU (Glucose)” value [2, 4]?
Its value is 175.33 ± 20.5.

And the “HCT(Hematocrit)” value [2, 4]?
The value was 55.66 ± 1.70.

And the “HDLNEW (High Density Lipoprotein)” value [2, 4]?
The value was 49 ± 5.29.

And the “Hb (Hemoglobin)” value [2, 4]?
The value was 14.63 ± 0.15.

What about the “K (Potassium)” value [2, 4] of the same compound?
Its value is 6.05 ± 0.21.

What about the “LDH (lactate Dehydrogenase)” value [2, 4] of the same compound?
Its value is 160 ± 37.51.

And the “LY(Lymphocytes)” value [2, 4]?
Its value is 4.78 ± 1.89.

What about the “MCH (Mean corpuscular hemoglobin)” value [2, 4] of the same compound?
Its value is 14.10 ± 0.2.

What about the “MCHC (mean corpuscular hemoglobin concentration)” value [2, 4] of the same compound?
Its value is 26.33 ± 0.55.

And the “MCV (Mean corpuscular Volume)” value [2, 4]?
The value was 53.60 ± 0.26.

And the “MO(Monocytes)” value [2, 4]?
The value was 0.34 ± 0.28.

What about the “MPV (Mean Platelet Volume)” value [2, 4] of the same compound?
The value was 5.06 ± 0.37.

And the “NE(Neutrophils)” value [2, 4]?
The value was 2.43 ± 0.94.

What about the “Na (Sodium)” value [2, 4] of the same compound?
Its value is 147.5 ± 0.70.

What about the “PLT (Platelet)” value [2, 4] of the same compound?
Its value is 533 ± 61.65.

And the “RBC (red Blood Cells)” value [2, 4]?
The value was 10.38 ± 0.26.

And the “RDW (Red Blood Cell Distribution Width)” value [2, 4]?
The value was 17.23 ± 0.30.

What about the “TBIL1 (Total bilirubin)” value [2, 4] of the same compound?
Its value is 0.26 ± 0.05.

And the “TPROT (Total protein)” value [2, 4]?
The value was 5.16 ± 0.05.

What about the “TRIG (Triglycerides)” value [2, 4] of the same compound?
Its value is 107.33 ± 22.40.

What about the “UA (Uric Acid)” value [2, 4] of the same compound?
Its value is 1.5 ± 0.26.

What about the “WBC(White Blood Cells)” value [2, 4] of the same compound?
Its value is 7.88 ± 3.42.

What about the “blood chemistry and hematologic panels versus vehicle” value ([2]; three doses of 40 mg/kg p.o. every third day, euthanized on day 12) of the same compound?
The value was “No significant difference”.

What about the “ALBNEW (Albumin)” value [3] of the same compound?
Its value is 2.76 ± 0.23.

What about the “ALPNEW (Alkaline Phosphatase)” value [3] of the same compound?
Its value is 55.33 ± 6.50.

What about the “ALTNEW (Alanine Aminotransferase)” value [3] of the same compound?
The value was 31.33 ± 2.30.

What about the “AMYL (Amylase)” value [3] of the same compound?
Its value is 621.33 ± 127.

And the “ASTNEW (Aspartate aminotransferase)” value [3]?
The value was 50.33 ± 4.93.

What about the “BA(Basophils)” value [3] of the same compound?
Its value is 0.023 ± 0.011.

What about the “BUNNEW (Blood Urea Nitrogen)” value [3] of the same compound?
Its value is 26 ± 5.29.

And the “CA (Calcium)” value [3]?
The value was 8.56 ± 0.23.

And the “CHOL (Cholesterol)” value [3]?
Its value is 67 ± 4.58.

What about the “CK_NEW (Creatinine Kinase)” value [3] of the same compound?
Its value is 131 ± 65.50.

What about the “CREAT (Creatinine)” value [3] of the same compound?
Its value is 0.46 ± 0.057.

What about the “EO (Eosinophils)” value [3] of the same compound?
Its value is 0.10 ± 0.01.

And the “GGTNEW (Gamma-Glutamyl Transferase)” value [3]?
The value was 5.33 ± 0.57.

What about the “GLU (Glucose)” value [3] of the same compound?
Its value is 170.66 ± 6.11.

And the “HCT(Hematocrit)” value [3]?
Its value is 50.36 ± 2.45.

What about the “HDLNEW (High Density Lipoprotein)” value [3] of the same compound?
The value was 40.33 ± 4.72.

What about the “Hb (Hemoglobin)” value [3] of the same compound?
Its value is 13.26 ± 1.00.

What about the “LDH (lactate Dehydrogenase)” value [3] of the same compound?
Its value is 172.06 ± 14.29.

What about the “LY(Lymphocytes)” value [3] of the same compound?
The value was 1.87 ± 0.69.

And the “MCH (Mean corpuscular hemoglobin)” value [3]?
The value was 13.60 ± 0.53.

And the “MCHC (mean corpuscular hemoglobin concentration)” value [3]?
Its value is 26.33 ± 0.75.

And the “MCV (Mean corpuscular Volume)” value [3]?
Its value is 51.66 ± 2.63.

And the “MO(Monocytes)” value [3]?
Its value is 0.25 ± 0.07.

And the “MPV (Mean Platelet Volume)” value [3]?
Its value is 5.36 ± 0.06.

What about the “NE(Neutrophils)” value [3] of the same compound?
The value was 2.69 ± 0.45.

And the “PLT (Platelet)” value [3]?
Its value is 907 ± 45.92.

What about the “RBC (red Blood Cells)” value [3] of the same compound?
The value was 9.77 ± 0.76.

What about the “RDW (Red Blood Cell Distribution Width)” value [3] of the same compound?
The value was 18.00 ± 0.52.

What about the “TBIL1 (Total bilirubin)” value [3] of the same compound?
The value was 0.233 ± 0.057.

What about the “TPROT (Total protein)” value [3] of the same compound?
Its value is 4.46 ± 0.11.

What about the “UA (Uric Acid)” value [3] of the same compound?
The value was 2.86 ± 0.41.

What about the “WBC(White Blood Cells)” value [3] of the same compound?
The value was 7.62 ± 4.17.

And the IC50 (HeLa cells)?
The IC50 was 184 nM.

And the IC50 (ES-2)?
Its IC50 is 750 nM.

What about the IC50 (NCl-H929) of the same compound?
The IC50 was 50 nM.
